Experimental data reported in paper PMC6792352, “Limited Chemical Structural Diversity Found to Modulate Thyroid Hormone Receptor in the Tox21 Chemical Library” (Environmental Health Perspectives, 2019).
Where a name gives a salt, the structure may show the parent alone. Read-outs that look alike come from different tables or passages of the source.

System: GH3-TRE-Luc cell line
Conditions: read-out: AC50 (uM) modified / 1000, viability, 1 nM T3 present, 24 h

Molecule `Nc1ccc(-c2ccc(N)c(N)c2)cc1N` [3,3'-Diaminobenzidine] has a CC50 (Tox21_110001=Tox21_302170) of 93.2 µM.

`CCCCCCCCCC[N+](C)(C)CCCCCCCCCC` [Didecyldimethylammonium bromide] was tested, and the CC50 (Tox21_110001=Tox21_112302) was 6.15 µM.

`Cc1oncc1C(=O)Nc1ccc(C(F)(F)F)cc1` [Leflunomide] gave a CC50 (Tox21_110001=Tox21_110182) of 9.39 µM and a CC50 (Tox21_110001=Tox21_301873) of over 90 µM.

Molecule `O=S(=O)(O)c1ccc2c(N=Nc3ccc(S(=O)(=O)O)c4ccccc34)c(O)c(S(=O)(=O)O)cc2c1` [Amaranth] has a CC50 (Tox21_110001=Tox21_112280) of 19.3 µM.

Work on `O=C(OC[C@H]1O[C@@H](OC(=O)c2cc(O)c(O)c(OC(=O)c3cc(O)c(O)c(O)c3)c2)[C@H](OC(=O)c2cc(O)c(O)c(OC(=O)c3cc(O)c(O)c(O)c3)c2)[C@@H](OC(=O)c2cc(O)c(O)c(OC(=O)c3cc(O)c(O)c(O)c3)c2)[C@@H]1OC(=O)c1cc(O)c(O)c(OC(=O)c2cc(O)c(O)c(O)c2)c1)c1cc(O)c(O)c(OC(=O)c2cc(O)c(O)c(O)c2)c1` [Tannic acid] yielded a CC50 (Tox21_110001=Tox21_111422) of 3.05 µM and a CC50 (Tox21_110001=Tox21_300079) of 15.7 µM.

`CCc1nc(N)nc(N)c1-c1ccc(Cl)cc1` [Pyrimethamine] gave a CC50 (Tox21_110001=Tox21_201834) of over 90 µM and a CC50 (Tox21_110001=Tox21_300129) of 42.7 µM.

Work on `CC(=O)N1CCN(c2ccc(OC[C@@H]3CO[C@@](Cn4ccnc4)(c4ccc(Cl)cc4Cl)O3)cc2)CC1` (racemic) [Ketoconazole] yielded a CC50 (Tox21_110001=Tox21_300267) of 23.7 µM.

In the case of `CC[C@H]1OC(=O)[C@H](C)[C@@H](O[C@H]2C[C@@](C)(OC)[C@@H](O)[C@H](C)O2)[C@H](C)[C@@H](O[C@@H]2O[C@H](C)C[C@H](N(C)C)[C@H]2O)[C@](C)(O)C[C@@H](C)/C(=N\OCOCCOC)[C@H](C)[C@@H](O)[C@]1(C)O` [Roxithromycin], the CC50 (Tox21_110001=Tox21_301835) is reported as 31 µM.

Molecule `c1ccc(C(O[C@@H]2CCCN(CCc3ccc4c(c3)OCO4)C2)c2ccccc2)cc1` [Zamifenacin] has a CC50 (Tox21_110001=Tox21_300210) of 40 µM.

For `CN(C)CCCN1c2ccccc2Sc2ccc(Cl)cc21` [Chlorpromazine], the CC50 (Tox21_110001=Tox21_110120) was 8.03 µM.

In the case of `Cc1c(O)cccc1C(=O)N[C@@H](CSc1ccccc1)[C@H](O)CN1C[C@H]2CCCC[C@H]2C[C@H]1C(=O)NC(C)(C)C` [Nelfinavir mesylate], the CC50 (Tox21_110001=Tox21_111021) is reported as 3.68 µM and the CC50 (Tox21_110001=Tox21_200921) is reported as 1.83 µM.

Molecule `CC(C)(C)c1ccc(C(O)CCCN2CCC(C(O)(c3ccccc3)c3ccccc3)CC2)cc1` (stereo not drawn) [Terfenadine] has a CC50 (Tox21_110001=Tox21_110296) of 5.45 µM.

`CCCSc1ccc2nc(NC(=O)OC)[nH]c2c1` [Albendazole] showed a CC50 (Tox21_110001=Tox21_110659) of 0.271 µM.

With `[H]/N=C(\N/C(=N/[H])NCCCCCCNC(=N)NC(=N)Nc1ccc(Cl)cc1)Nc1ccc(Cl)cc1` [Chlorhexidine] the CC50 (Tox21_110001=Tox21_110325) was 12.4 µM, the CC50 (Tox21_110001=Tox21_201404) was 7.06 µM and the CC50 (Tox21_110001=Tox21_303445) was 6.48 µM.

`CCn1c2ccccc2c2cc(N)ccc21` [3-Amino-9-ethylcarbazole] was tested, and the CC50 (Tox21_110001=Tox21_303548) was 93.2 µM.

`O=[N+]([O-])c1ccc(O)cc1` [4-Nitrophenol] showed a CC50 (Tox21_110001=Tox21_300117) of 67.6 µM.

`CC(C)(C)NC(=O)[C@@H]1C[C@@H]2CCCC[C@@H]2CN1C[C@@H](O)[C@H](Cc1ccccc1)NC(=O)[C@H](CC(N)=O)NC(=O)c1ccc2ccccc2n1` [Saquinavir mesylate] gave a CC50 (Tox21_110001=Tox21_111137) of 9.01 µM and a CC50 (Tox21_110001=Tox21_202533) of 27.8 µM.

`CCN(CC)C(=S)S` [Sodium diethyldithiocarbamate] gave a CC50 (Tox21_110001=Tox21_112412) of 1.18 µM.

`Nc1ccc(/N=N/c2ccccc2)c(N)n1` [Phenazopyridine hydrochloride] was tested, and the CC50 (Tox21_110001=Tox21_110829) was 18.5 µM, the CC50 (Tox21_110001=Tox21_202153) was 45.2 µM and the CC50 (Tox21_110001=Tox21_302738) was 44.8 µM.

Molecule `CCCCC(CC)COC(=O)CC(C(=O)OCC(CC)CCCC)S(=O)(=O)O` (stereo not drawn) [Docusate sodium] has a CC50 (Tox21_110001=Tox21_112087) of 34.4 µM, a CC50 (Tox21_110001=Tox21_113469) of 18.8 µM and a CC50 (Tox21_110001=Tox21_201342) of 64.9 µM. The CC50 (Tox21_110001=Tox21_300496) was 57.2 µM.

`CCCCCCCCCCCCCCCCn1cc[n+](C)c1` [1-Hexadecyl-3-methylimidazolium tetrafluoroborate] showed a CC50 (Tox21_110001=Tox21_202647) of 12.9 µM.

For `Oc1c(Cl)cc(Cl)cc1Sc1cc(Cl)cc(Cl)c1O` [Bithionol], the CC50 (Tox21_110001=Tox21_110832) was 12.4 µM, the CC50 (Tox21_110001=Tox21_200384) was 6.76 µM and the CC50 (Tox21_110001=Tox21_302919) was 20.3 µM.

`O=C(CCCN1CCC(O)(c2ccc(Cl)cc2)CC1)c1ccc(F)cc1` [Haloperidol] was tested, and the CC50 (Tox21_110001=Tox21_110162) was 20.6 µM and the CC50 (Tox21_110001=Tox21_300475) was 52.1 µM.

In the case of `C[C@@H]1C[C@@H]([C@H](O)CC2CC(=O)NC(=O)C2)C(=O)[C@@H](C)C1` [Cycloheximide], the CC50 (Tox21_110001=Tox21_113580) is reported as 0.256 µM, the CC50 (Tox21_110001=Tox21_201158) is reported as 0.0922 µM and the CC50 (Tox21_110001=Tox21_303652) is reported as 1.49 µM.

`CCCCCCCCCc1ccc(O)cc1` [4-Nonylphenol, branched] showed a CC50 (Tox21_110001=Tox21_111040) of 28.7 µM, a CC50 (Tox21_110001=Tox21_201528) of 23.6 µM and a CC50 (Tox21_110001=Tox21_300576) of 22.3 µM.

Work on `CO[C@@H]1[C@H](OC(=O)/C=C/C=C/C=C/C=C/C(=O)O)CC[C@]2(CO2)[C@H]1[C@@]1(C)O[C@@H]1CC=C(C)C` [Fumagillin] yielded a CC50 (Tox21_110001=Tox21_112066) of 42.9 µM.

For `O=S1(=O)OC(c2ccc(O)cc2)(c2ccc(O)cc2)c2ccccc21` [Phenol red], the CC50 (Tox21_110001=Tox21_303570) was 79.8 µM.

In the case of `c1cnc2c(c1)ccc1cccnc12` [1,10-Phenanthroline], the CC50 (Tox21_110001=Tox21_201998) is reported as 46.4 µM and the CC50 (Tox21_110001=Tox21_303111) is reported as 66.2 µM.

`c1cnc2c(c1)ccc1cccnc12` [1,10-Phenanthroline hydrochloride hydrate] showed a CC50 (Tox21_110001=Tox21_301286) of 7.25 µM.

`Nc1nc(Cl)nc2c1ncn2[C@H]1C[C@H](O)[C@@H](CO)O1` [Cladribine] gave a CC50 (Tox21_110001=Tox21_110834) of 0.386 µM and a CC50 (Tox21_110001=Tox21_300596) of 0.166 µM.
